Data on one molecule can be found in patent US11590117B2, “Treatment of a hematologic malignancy with 2-(4-chlorophenyl)-n-((2-(2,6-dioxopiperidin-3-yl)-1-oxoisoindolin-5-yl)methyl)-2,2-difluoroacetamide” (priority 2016, dated 2023).

For assay [1], the system named is HR-MDS, sAML and normal bone marrow progenitors. Briefly: SL/M2 stromal co-culture colony forming assay (cell survival assay). The class given is cell-based, human. How it is done:
(§1) Methods. Mouse stromal cells SL/M2 stably expressing human interleukin-3 (IL-3), granulocyte colony stimulating factor (G-CSF) and stem cell factor (SCF) were cultured to confluency, followed by gamma-irradiation. Human CD34+ bone marrow cells isolated from 3 high-risk MDS patients (HR-MDS), 3 secondary AML patients arising from MDS (sAML) and 5 age-matched healthy donors were then cultured with inactivated SL/M2 cells for a week. Next, human progenitor cells were quantified by FACS and cells were plated in methylcellulose for colony forming assay (cell survival assay). After two weeks, 20-25 colonies were picked from each condition, resuspended and replated in fresh methylcellulose for 2nd round of colony forming assay (cell self-renewal assay).

Assay [2] has as its system AML cell lines. Briefly: IncuCyte Kinetic Caspase-3/7 Apoptosis Assay, panel of twenty AML cell lines. The class given is cell-based. As to conditions: Homo sapiens. The text has this: Methods. Acute Myeloid Leukemia Cell Line Panel: Human AML cell lines, AML-193, F36-P, GDM-1, HL-60, HNT-34, Kasumi-1, Kasumi-3, KG-1, KG-1a, ML-2, MOLM-13, MUTZ-8, MV-4-11, NOMO-1, OCI-AML2, OCI-AML3, SIG-M5, TF-1, THP-1, and UT-7 were obtained from American Type Culture Collection (ATCC; Manassas, Va.) and Deutsche Sammlung von Mikroorganismen und Zellkulturen (DSMZ) (Germany) cell banks. The AML panel includes cell line(s) from each FAB classification (M0-M7) (Table 7).
Cell Culture Conditions: Cell lines were maintained in growth media containing 20% fetal bovine serum (FBS) (Hyclone Cat no. SH30910.03, Lot no. AZF188864; Corning REFno. 35-010-CV, Lot no. 35010124) supplemented with or without 10 ng/mL human recombinant granulocyte-macrophage colony stimulating factor (Sigma-Aldrich Cat no. SRP3050) (Table 8). Medium was purchased from ATCC (Cat no. 30-2001, 30-2002, 30-2003, 30-2005) and Gibco (REF no. 12561-056). Human recombinant granulocyte macrophage colony stimulating factor (GM-CSF) was expressed in Escherichia coli. The cell doubling times for each cell line were provided by ATCC and DSMZ. Cells were maintained in humidified incubators at 5% carbon dioxide (CO2). All cell lines were acclimated to Eagle's minimal essential medium (EMEM)+20% FBS with or without GM-CSF over 2 to 4 weeks prior to live cell imaging using IncuCyte Zoom (Essen Biosciences). The use of EMEM was necessary to eliminate background fluorescence caused by riboflavin in most media.
Incubation of Cell Cultures with Compound 1: Compound 1 was provided for studies by Celgene chemistry group at a stock concentration of 30 mM in 20 μL dimethyl sulfoxide (DMSO) frozen. Costar 96-well cell culture plates (Corning Cat no. 3595) were coated with 100 μL of 10 µg/mL fibronectin (Sigma-Aldrich Cat no. F1141) for 4 hours at 37° C. and immediately used or refrigerated overnight for later use. Cells (3000 to 6000 cells) were plated in growth medi in fibronectin-coated 96-well plates and incubated for a minimum of a few hours to overnight. Cells were incubated with a 12-point concentration response in triplicate with Compound 1 ([…]) including DMSO and Media controls. A 3-fold serial dilution of Compound 1 starting from a concentration of 200 μM in 0.6% DMSO (diluted in Media) was performed. For most sensitive cell lines, a 3-fold serial dilution of Compound 1 starting from a concentration of 20 μM in 0.6% DMSO (diluted in media) was performed. A volume of 5 μL or 10 μL for each dilution was added to 100 μL or 200 μL cells, respectively (0.3% DMSO final) and incubated for live cell imaging.
Live Cell Imaging on IncuCyte Zoom: Following incubation of cells with Compound 1, diluted Caspase 3/7 reagent (Essen Biosciences Cat no. 4440) is added to each well. The Caspase-3/7 reagent couples the activated caspase-3/7 recognition motif (DEVD) to NucView™488, a DNA intercalating dye. The cleavage of substrate by activated caspase-3/7 results in the release of the DNA dye and green fluorescent staining of nuclear DNA. This allows imaging of cells undergoing caspase-3/7 mediated apoptosis over time. Caspase-3/7 activation was quantified using the IncuCyte™ ZOOM basic analyzer. Red-labeled cell lines were also imaged over time using the IncuCyte™ ZOOM basic analyzer, for determination of both cell doubling time and Compound 1 effect on cell viability. Experiments were performed at least two times in each cell line.
Next, a 4 parameter log-logistic model was used to determine relative EC50 at each time point by the ‘drm’ function from the R ‘drc’ package (Ritz C, Streibig J C. Bioassay Analysis using R. J. Statist. Software 2005; 12(5):1-22). Goodness of fit was measured by R squared (coefficient of determination or the amount of variation explained by the model fit) of ≥80%, and EC50 parameter was assessed by having a ratio of standard error to the parameter of ≤40%, and the presence of at least one concentration point above and below the reported EC50. […]

For assay [3], the system named is HR-MDS, sAML and normal bone marrow progenitors. Briefly: SL/M2 stromal co-culture colony replating assay (cell self-renewal assay). The settings on record: 1 nM and 10 nM; sAML and HR-MDS progenitors more than normal bone marrow progenitors. The class given is cell-based, human. How it is done:
Compound 1 at the indicated concentrations was added at the initiation of co-culture, with DMSO as a vehicle control. Colonies were scored to determine the effect of Compound 1 on cell survival (FIG. 36A) and self-renewal (FIG. 36B). ***, p<0.001, AML vs normal bone marrow controls treated with 1 nM of compound 1 (one-way ANOVA). **, p=0.01, AML vs normal bone marrow controls treated with 10 nM of Compound 1 (one-way ANOVA). Error bars represent mean values SD.
as §1

Structures are written as SMILES. Read-outs that look alike come from different tables or passages of the source.

Take `O=C1CCC(N2Cc3cc(CNC(=O)C(F)(F)c4ccc(Cl)cc4)ccc3C2=O)C(=O)N1` (stereo not drawn) [Compound 1, 2-(4-chlorophenyl)-N-((2-(2,6-dioxopiperidin-3-yl)-1-oxoisoindolin-5-yl)methyl)-2,2-difluoroacetamide]: in assay [1], the “colony formation (cell survival)” value was “significant cytotoxicity”. For the same molecule, the EC50 in assay [2] (12 h, 8 most sensitive cell lines (5 lines with curve fits), 12 hours, read-out: apoptosis EC50 12hr (range)) is 53 to 227 nM; in assay [2] (24 h, 14 of 20 cell lines with successful curve fits, 24 hours, read-out: apoptosis EC50 24hr (range)), 7 to 916 nM; in assay [2] (48 h, eight highly sensitive cell lines (HNT-34, Kasumi-3, HL-60, ML-2, MV4-11, KG-1, MUTZ-8, GDM-1), 48 hours, read-out: apoptosis EC50 48hr (range)), 4 to 49 nM; in assay [2] (48 h, eight highly sensitive cell lines, 48 hours, read-out: apoptosis average EC50 48hr), 27 nM; in assay [2] (48 h, four least sensitive cell lines (UT-7, F36-P, MOLM-13, OCI-AML3), 48 hours, read-out: apoptosis EC50 48hr (range)) it was 231 to 896 nM; in assay [2] (48 h, four least sensitive cell lines (UT-7, F36-P, MOLM-13, OCI-AML3), 48 hours, read-out: apoptosis average EC50 48hr), 458 nM. The 50% effective concentration (EC50) in assay [2] (48 h, seven moderately sensitive cell lines (OCI-AML-2, AML-193, SIG-M5, Kasumi-1, TF-1, Nomo-1, KG-1a), 48 hours, read-out: apoptosis EC50 48hr (range)) is 81 to 145 nM; in assay [2] (48 h, seven moderately sensitive cell lines, 48 hours, read-out: apoptosis average EC50 48hr), 114 nM; in assay [2] (72 h, AML cell panel, 72 hours, read-out: apoptosis EC50 72hr (range)), 3 to 971 nM; in assay [2] (96 h, AML cell panel, 96 hours, read-out: apoptosis EC50 96hr (range)), 1 to 418 nM. Besides, in assay [3], the “colony replating (self-renewal)” value was “significantly reduced the self-renewal”.
